Experimental data taken from PMC12065899 (Communications Biology, 2025).
Changes are numbered by the printed parent chain.

Key:
Assay type in all cases: biochemical
[1] = target: T1, HvExoI (β-D-glucan glucohydrolase) (Hordeum vulgare, UniProt Q9XEI3, E245A); assay: X-ray crystal structure
T1 sequence (Q9XEI3 26-630 E245A): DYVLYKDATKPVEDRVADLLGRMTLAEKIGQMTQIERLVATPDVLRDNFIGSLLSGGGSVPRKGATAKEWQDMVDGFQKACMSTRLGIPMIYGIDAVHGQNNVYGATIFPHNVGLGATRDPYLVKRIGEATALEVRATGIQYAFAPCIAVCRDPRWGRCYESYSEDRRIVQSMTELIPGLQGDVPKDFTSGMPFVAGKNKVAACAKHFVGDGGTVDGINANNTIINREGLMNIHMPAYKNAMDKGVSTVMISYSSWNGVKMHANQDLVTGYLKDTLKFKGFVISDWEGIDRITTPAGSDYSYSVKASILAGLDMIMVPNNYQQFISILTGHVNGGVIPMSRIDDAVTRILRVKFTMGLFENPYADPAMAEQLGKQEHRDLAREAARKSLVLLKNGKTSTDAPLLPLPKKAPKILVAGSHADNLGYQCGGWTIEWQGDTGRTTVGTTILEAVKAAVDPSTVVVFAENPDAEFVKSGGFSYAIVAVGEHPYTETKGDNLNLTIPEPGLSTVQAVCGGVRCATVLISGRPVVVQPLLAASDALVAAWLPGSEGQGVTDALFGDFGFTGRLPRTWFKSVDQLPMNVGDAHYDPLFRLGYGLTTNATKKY

[2] = target: T2, HvExoI (β-D-glucan glucohydrolase) (Hordeum vulgare, UniProt Q9XEI3); assay: competitive inhibition kinetics with 4NP-Glc
T2 sequence (Q9XEI3 26-630): T1 sequence (Q9XEI3 26-630 E245A) with A220E

[3] = target: T1, HvExoI (β-D-glucan glucohydrolase); assay: competitive inhibition kinetics with 4NP-Glc

Structure (SMILES)	Ki [1] [nM]	Ki [2] [nM]	Ki [3] [nM]
O=[N+]([O-])c1ccc(O[C@H]2O[C@H](CO)[C@@H](O)[C@H](O)[C@H]2F)c([N+](=O)[O-])c1 [2F-DNPGlc, 2,4-dinitrophenyl 2-deoxy-2-fluro-α-D-glucopyranoside]	500	500	–
O=C1O[C@H](CO)[C@@H](O)[C@H](O)[C@H]1O [glucono-δ-lactone]	–	–	103000
